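All cell lines were grown in 96-well plates and treated with compound for 48 hours. TGI is the concentration that stops growth completely.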
How the values were obtained:
Experiment in all cases: NCI-60 cell line screen, 48 h
HCT-116 colon = system: HCT-116 colon
NCI-H460 lung = system: NCI-H460 lung
SK-MEL-28 melanoma = system: SK-MEL-28 melanoma
TK-10 renal = system: TK-10 renal
MOLT-4 leukemia = system: MOLT-4 leukemia
HCT-15 colon = system: HCT-15 colon
MDA-N = system: MDA-N
DU-145 prostate = system: DU-145 prostate
NCI-H23 lung = system: NCI-H23 lung
SW-620 colon = system: SW-620 colon
OVCAR-3 ovarian = system: OVCAR-3 ovarian
IGROV1 ovarian = system: IGROV1 ovarian
KM12 colon = system: KM12 colon
MALME-3M melanoma = system: MALME-3M melanoma
HT29 colon = system: HT29 colon
786-0 renal = system: 786-0 renal
SF-539 CNS = system: SF-539 CNS
UO-31 renal = system: UO-31 renal
MDA-MB-231 breast = system: MDA-MB-231 breast
OVCAR-5 ovarian = system: OVCAR-5 ovarian
CCRF-CEM leukemia = system: CCRF-CEM leukemia
HS 578T breast = system: HS 578T breast
SN12C renal = system: SN12C renal
BT-549 breast = system: BT-549 breast
SK-MEL-5 melanoma = system: SK-MEL-5 melanoma
M14 melanoma = system: M14 melanoma
SF-268 CNS = system: SF-268 CNS
K-562 leukemia = system: K-562 leukemia
HL-60(TB) leukemia = system: HL-60(TB) leukemia
NCI/ADR-RES ovarian = system: NCI/ADR-RES ovarian
A549 NSCLC = system: A549 NSCLC
ACHN renal = system: ACHN renal
SK-MEL-2 melanoma = system: SK-MEL-2 melanoma
SF-295 CNS = system: SF-295 CNS
UACC-257 melanoma = system: UACC-257 melanoma
U251 CNS = system: U251 CNS
HOP-62 NSCLC = system: HOP-62 NSCLC
CAKI-1 renal = system: CAKI-1 renal
HOP-92 NSCLC = system: HOP-92 NSCLC
LOX IMVI melanoma = system: LOX IMVI melanoma
SNB-75 CNS = system: SNB-75 CNS
T-47D breast = system: T-47D breast
HCC-2998 colon = system: HCC-2998 colon
RPMI-8226 leukemia = system: RPMI-8226 leukemia
SK-OV-3 ovarian = system: SK-OV-3 ovarian
A498 renal = system: A498 renal
UACC-62 melanoma = system: UACC-62 melanoma
PC-3 prostate = system: PC-3 prostate
NCI-H522 lung = system: NCI-H522 lung
NCI-H226 lung = system: NCI-H226 lung
MDA-MB-435 = system: MDA-MB-435
MCF7 breast = system: MCF7 breast
OVCAR-8 ovarian = system: OVCAR-8 ovarian
OVCAR-4 ovarian = system: OVCAR-4 ovarian
COLO 205 colon = system: COLO 205 colon
SNB-19 CNS = system: SNB-19 CNS
EKVX NSCLC = system: EKVX NSCLC
SR leukemia = system: SR leukemia
RXF 393 renal = system: RXF 393 renal

COC(=O)C1CCC(=O)N1C(c1ccc(OC)cc1)c1ccc2c(c1)OCO2 (stereo not drawn)
TGI (HCT-116 colon): > 100 µM
TGI (NCI-H460 lung): > 100 µM
TGI (SK-MEL-28 melanoma): > 100 µM
TGI (TK-10 renal): > 100 µM
TGI (MOLT-4 leukemia): > 100 µM
TGI (HCT-15 colon): > 100 µM
TGI (MDA-N): 27.3 µM
TGI (DU-145 prostate): > 100 µM
TGI (NCI-H23 lung): > 100 µM
TGI (SW-620 colon): > 100 µM
TGI (OVCAR-3 ovarian): > 100 µM
TGI (IGROV1 ovarian): > 100 µM
TGI (KM12 colon): > 100 µM
TGI (MALME-3M melanoma): > 100 µM
TGI (HT29 colon): > 100 µM
TGI (786-0 renal): > 100 µM
TGI (SF-539 CNS): 98.6 µM
TGI (UO-31 renal): > 100 µM
TGI (MDA-MB-231 breast): > 100 µM
TGI (OVCAR-5 ovarian): > 100 µM
TGI (CCRF-CEM leukemia): > 100 µM
TGI (HS 578T breast): > 100 µM
TGI (SN12C renal): > 100 µM
TGI (BT-549 breast): > 100 µM
TGI (SK-MEL-5 melanoma): 81.7 µM
TGI (M14 melanoma): > 100 µM
TGI (SF-268 CNS): > 100 µM
TGI (K-562 leukemia): > 100 µM
TGI (HL-60(TB) leukemia): 91.2 µM
TGI (NCI/ADR-RES ovarian): > 100 µM
TGI (A549 NSCLC): > 100 µM
TGI (ACHN renal): > 100 µM
TGI (SK-MEL-2 melanoma): > 100 µM
TGI (SF-295 CNS): 48 µM
TGI (UACC-257 melanoma): > 100 µM
TGI (U251 CNS): > 100 µM
TGI (HOP-62 NSCLC): > 100 µM
TGI (CAKI-1 renal): > 100 µM
TGI (HOP-92 NSCLC): > 100 µM
TGI (LOX IMVI melanoma): > 100 µM
TGI (SNB-75 CNS): 78.9 µM
TGI (T-47D breast): > 100 µM
TGI (HCC-2998 colon): > 100 µM
TGI (RPMI-8226 leukemia): > 100 µM
TGI (SK-OV-3 ovarian): > 100 µM
TGI (A498 renal): > 100 µM
TGI (UACC-62 melanoma): > 100 µM
TGI (PC-3 prostate): > 100 µM
TGI (NCI-H522 lung): > 100 µM
TGI (NCI-H226 lung): > 100 µM
TGI (MDA-MB-435): 28.7 µM
TGI (MCF7 breast): > 100 µM
TGI (OVCAR-8 ovarian): > 100 µM
TGI (OVCAR-4 ovarian): > 100 µM
TGI (COLO 205 colon): > 100 µM
TGI (SNB-19 CNS): > 100 µM
TGI (EKVX NSCLC): > 100 µM
TGI (SR leukemia): > 100 µM

CS(=O)c1ncc2c(n1)-c1ccccc1OC2 (stereo not drawn)
TGI (HCT-116 colon): > 100 µM
TGI (NCI-H460 lung): > 100 µM
TGI (SK-MEL-28 melanoma): > 100 µM
TGI (TK-10 renal): > 100 µM
TGI (MOLT-4 leukemia): > 100 µM
TGI (HCT-15 colon): > 100 µM
TGI (MDA-N): > 100 µM
TGI (DU-145 prostate): > 100 µM
TGI (NCI-H23 lung): > 100 µM
TGI (SW-620 colon): > 100 µM
TGI (OVCAR-3 ovarian): > 100 µM
TGI (IGROV1 ovarian): > 100 µM
TGI (KM12 colon): > 100 µM
TGI (MALME-3M melanoma): > 100 µM
TGI (HT29 colon): > 100 µM
TGI (786-0 renal): > 100 µM
TGI (SF-539 CNS): > 100 µM
TGI (UO-31 renal): > 100 µM
TGI (MDA-MB-231 breast): > 100 µM
TGI (OVCAR-5 ovarian): > 100 µM
TGI (CCRF-CEM leukemia): > 100 µM
TGI (HS 578T breast): > 100 µM
TGI (SN12C renal): > 100 µM
TGI (BT-549 breast): > 100 µM
TGI (SK-MEL-5 melanoma): > 100 µM
TGI (M14 melanoma): > 100 µM
TGI (SF-268 CNS): > 100 µM
TGI (K-562 leukemia): > 100 µM
TGI (HL-60(TB) leukemia): > 100 µM
TGI (RXF 393 renal): > 100 µM
TGI (NCI/ADR-RES ovarian): > 100 µM
TGI (A549 NSCLC): > 100 µM
TGI (ACHN renal): > 100 µM
TGI (SK-MEL-2 melanoma): > 100 µM
TGI (SF-295 CNS): > 100 µM
TGI (UACC-257 melanoma): > 100 µM
TGI (U251 CNS): > 100 µM
TGI (HOP-62 NSCLC): > 100 µM
TGI (CAKI-1 renal): > 100 µM
TGI (HOP-92 NSCLC): > 100 µM
TGI (LOX IMVI melanoma): > 100 µM
TGI (SNB-75 CNS): > 100 µM
TGI (T-47D breast): > 100 µM
TGI (HCC-2998 colon): > 100 µM
TGI (RPMI-8226 leukemia): > 100 µM
TGI (SK-OV-3 ovarian): > 100 µM
TGI (UACC-62 melanoma): > 100 µM
TGI (PC-3 prostate): > 100 µM
TGI (NCI-H522 lung): > 100 µM
TGI (NCI-H226 lung): > 100 µM
TGI (MDA-MB-435): > 100 µM
TGI (MCF7 breast): > 100 µM
TGI (OVCAR-8 ovarian): > 100 µM
TGI (OVCAR-4 ovarian): > 100 µM
TGI (COLO 205 colon): > 100 µM
TGI (SNB-19 CNS): > 100 µM
TGI (EKVX NSCLC): > 100 µM
TGI (SR leukemia): > 100 µM

CC1OC(OC2C(OC(=O)[C@]34CCC(C)(C)C[C@H]3C3=CC[C@@H]5[C@@]6(C)CC[C@H](OC7OC(C(=O)O)C(O)C(O)C7O)C(C)(C)[C@@H]6CC[C@@]5(C)[C@]3(C)C[C@H]4O)OCC(O)C2O)C(O)C(OC2OCC(O)(CO)C2O)C1OC1OCC(O)C(O)C1O (stereo partly drawn)
TGI (HCT-116 colon): 19.8 µM
TGI (NCI-H460 lung): 36.5 µM
TGI (SK-MEL-28 melanoma): 15.2 µM
TGI (MOLT-4 leukemia): 38.8 µM
TGI (HCT-15 colon): 30 µM
TGI (MDA-N): 16 µM
TGI (DU-145 prostate): 25.8 µM
TGI (NCI-H23 lung): 7.18 µM
TGI (SW-620 colon): 23.2 µM
TGI (OVCAR-3 ovarian): 27.4 µM
TGI (IGROV1 ovarian): 33.3 µM
TGI (KM12 colon): 16.3 µM
TGI (MALME-3M melanoma): 24.7 µM
TGI (HT29 colon): 12.1 µM
TGI (786-0 renal): 24.7 µM
TGI (UO-31 renal): 8.42 µM
TGI (MDA-MB-231 breast): 12.7 µM
TGI (OVCAR-5 ovarian): 22.9 µM
TGI (CCRF-CEM leukemia): 52.1 µM
TGI (HS 578T breast): 40 µM
TGI (SN12C renal): 11 µM
TGI (BT-549 breast): 17.3 µM
TGI (SK-MEL-5 melanoma): 28.1 µM
TGI (M14 melanoma): 23.3 µM
TGI (SF-268 CNS): 33.7 µM
TGI (K-562 leukemia): 35.8 µM
TGI (HL-60(TB) leukemia): 11.4 µM
TGI (RXF 393 renal): 31.5 µM
TGI (NCI/ADR-RES ovarian): 27.9 µM
TGI (A549 NSCLC): 14.8 µM
TGI (ACHN renal): 17.4 µM
TGI (SK-MEL-2 melanoma): 20 µM
TGI (SF-295 CNS): 26.9 µM
TGI (UACC-257 melanoma): 26.6 µM
TGI (U251 CNS): 21.4 µM
TGI (HOP-62 NSCLC): 32.4 µM
TGI (CAKI-1 renal): 20 µM
TGI (HOP-92 NSCLC): 26.7 µM
TGI (LOX IMVI melanoma): 26.6 µM
TGI (SNB-75 CNS): 31.8 µM
TGI (T-47D breast): 26.4 µM
TGI (HCC-2998 colon): 3.32 µM
TGI (RPMI-8226 leukemia): 26 µM
TGI (SK-OV-3 ovarian): 29.3 µM
TGI (A498 renal): 3.47 µM
TGI (UACC-62 melanoma): 31 µM
TGI (PC-3 prostate): 21.3 µM
TGI (NCI-H522 lung): 16.5 µM
TGI (NCI-H226 lung): 28.3 µM
TGI (MDA-MB-435): 20.7 µM
TGI (MCF7 breast): 18.3 µM
TGI (OVCAR-8 ovarian): 33.4 µM
TGI (OVCAR-4 ovarian): 22.7 µM
TGI (COLO 205 colon): 3.36 µM
TGI (SNB-19 CNS): 23.8 µM
TGI (EKVX NSCLC): 16.2 µM
TGI (SR leukemia): 18.9 µM

Source: PubChem BioAssay (NCI)
